What was measured:
[1] = biological target: recombinant DYRK1A kinase (Homo sapiens (Human), UniProt Q13627); assay: DYRK1A kinase assay (Ser/Thr 18 peptide Z-lyte FRET); format: biochemical; details: 30 μM ATP, 1 h room temperature;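 also: Read-out is the coumarin to fluorescein emission ratio, referenced to unphosphorylated (0%) and phosphorylated (100%) Ser/Thr 18 peptide controls, values from dose-response curves by non-linear regression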
[2] = tested on: Wnt pathway (Sp5-Luc reporter, TCF/LEF binding sites) in SW480 colon carcinoma cells; assay: Screening assay for Wnt activity: Sp5-Luc reporter gene assay; format: cell-based, human; details: Homo sapiens; for EC50: Sp5-Luc reporter, SW480 cells, 36 to 48 hours; for inhibition at 10 µM: SW480, read-out: percent inhibition at 10 μM;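 as to all read-outs here: firefly luciferase luminescence read in stably transduced SW480 cells carrying the Sp5 promoter reporter with eight TCF/LEF sites, compounds given in 0.1% DMSO final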
Procedure: The screening assay for Wnt activity is described as follows.
Following incubation, 15 μl of BriteLite Plus luminescence reagent (Perkin Elmer) was added to each well of the 384-well assay plates. The plates were placed on an orbital shaker for 2 min and then luminescence was quantified using the Envision (Perkin Elmer) plate reader.

[3] = tested on: SW480 colon carcinoma cells; assay: Cell viability assay (CellTiter-Glo); format: cell-based, human; details: Homo sapiens; for EC50: 96 h, SW480 cells, CellTiter-Glo, four days incubation; for inhibition at 10 µM: SW480, read-out: percent inhibition at 10 μM
[4] = biological target: recombinant GSK3β kinase (Homo sapiens (Human), UniProt P49841); assay: GSK3β kinase assay (Ser/Thr 09 peptide Z-lyte FRET); format: biochemical; details: 46 μM ATP, 1 h room temperature;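 also: kinase activity read as coumarin to fluorescein emission ratio, 11-point threefold dilutions from 10 µM to 0.0003 µM in duplicate, unphosphorylated and phosphorylated peptide as 0% and 100% controls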
Sequence of recombinant GSK3β kinase (P49841 whole entry): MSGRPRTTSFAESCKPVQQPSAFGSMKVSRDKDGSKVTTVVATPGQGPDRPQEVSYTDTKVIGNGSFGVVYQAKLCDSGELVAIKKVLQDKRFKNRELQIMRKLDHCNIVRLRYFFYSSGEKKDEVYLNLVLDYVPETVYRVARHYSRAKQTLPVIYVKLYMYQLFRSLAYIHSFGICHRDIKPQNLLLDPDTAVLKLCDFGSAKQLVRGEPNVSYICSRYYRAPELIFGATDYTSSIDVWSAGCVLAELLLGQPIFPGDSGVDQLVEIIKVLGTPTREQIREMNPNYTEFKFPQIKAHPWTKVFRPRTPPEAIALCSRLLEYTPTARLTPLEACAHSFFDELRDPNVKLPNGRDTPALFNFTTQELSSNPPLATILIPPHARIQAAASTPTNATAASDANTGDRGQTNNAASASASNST

[5] = tested on: α-smooth muscle actin (αSMA) positive LL29 cells; assay: Inhibition of fibrotic process: αSMA in TGF-β1 treated primary human fibroblasts from IPF patients; format: cell-based; details: Homo sapiens, Fibroblast; for EC50: 96 h, Table 8, LL29 fibroblasts from IPF patients, TGF-β1 20 ng/mL, 4 days, dose-response 10 μM to 0.94 nM; for inhibition at 10 µM: read-out: percent value in parentheses beside EC50 >10 μM;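 as to all read-outs here: controls were TGF-β1 stimulated wells with DMSO vehicle (positive) and cells given DMSO alone (negative), cultured in F12 medium with 1% fetal bovine serum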
[6] = tested on: IL-6; assay: IL-6 inhibition in LPS-stimulated human peripheral blood mononuclear cells (HTRF); format: cell-based; details: Homo sapiens, PBMC; for EC50: Table 9, huPBMCs, LPS 50 ng/mL, 22 hours, dose-response starting from 10 μM; for inhibition at 10 µM: read-out: percent value in parentheses beside EC50 >10 μM;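 as to all read-outs here: IL-6 detected by HTRF with an XL665- and Cryptate-labelled anti-IL-6 antibody pair, samples run in duplicate, EC50 obtained from a four-parameter Levenberg-Marquardt curve fit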
Procedure: After 22 hour incubation, a mixture of anti-IL6 XL665 and anti-IL-6 Cryptate diluted in reconstitution buffer (Catalog #62IL6PEC, Cisbio Inc., Bedford, Mass.) was added to each well. […] All samples were processed in duplicate. […] EC50 was determined using software generated by Dotmatics Limited (Windhill Bishops Stortford Herts, UK) using the Levenberg-Marquardt 4 parameter fitting procedure with finite different gradients.

[7] = tested on: Tau phosphorylation at Ser396 (pSer396); assay: Tau phosphorylation assay (pSer396 ELISA / western blot) in SH-SY5Y cells; format: cell-based, human; details: Homo sapiens; SH-SY5Y cells, overnight (16-18 h) exposure; read-out: pSer396 Tau EC50;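 also: EC50 for reduction of Tau pSer396 in lysed cells, measured by colorimetric ELISA or chemiluminescent western blot, both using the same pSer396 antibody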

Row | SMILES | EC50 [1] | EC50 [2] | EC50 [3] | EC50 [4] | EC50 [5] | EC50 [6] | EC50 [7] | inhibition at 10 µM [2] | inhibition at 10 µM [3] | inhibition at 10 µM [5] | inhibition at 10 µM [6]
1 | [2H]C([2H])([2H])N1CCN(CC(=O)Nc2cc3cc(-c4cnn(C)c4)ccc3cn2)CC1 [Compound 965, N-(6-(1-Methyl-1H-pyrazol-4-yl)isoquinolin-3-yl)-2-(4-(methyl-d3)piperazin-1-yl)acetamide] | 10.6 nM | 3180 nM | 8630 nM | 79 nM | 1370 nM | 3.26 µM | 1000 nM |  |  |  | 
2 | CCN1CCC(C(=O)Nc2cc3cc(-c4cnn(C)c4)c(F)cc3cn2)CC1 [Compound 967, 1-Ethyl-N-(7-fluoro-6-(1-methyl-1H-pyrazol-4-yl)isoquinolin-3-yl) piperidine-4-carboxamide] | 1.9 nM | 4420 nM | 459 nM | 46 nM | 79 nM | 1.13 µM | 373 nM |  |  |  | 
3 | CN1CCN(CC(=O)Nc2cc3cc(-c4cnn(C)c4)cc(F)c3cn2)CC1 [Compound 968, N-(8-Fluoro-6-(1-methyl-1H-pyrazol-4-yl)isoquinolin-3-yl)-2-(4-methylpiperazin-1-yl)acetamide] | 31.4 nM | > 10000 nM | > 10000 nM | 61 nM | > 10000 nM | 9.24 µM | 2700 nM | 38% | 14.5% | 24.1% | 
4 | CN1CCC(C(=O)Nc2cc3cc(-c4cnsc4)ccc3cn2)CC1 [Compound 970, N-(6-(Isothiazol-4-yl)isoquinolin-3-yl)-1-methylpiperidine-4-carboxamide] | 2.3 nM | 1360 nM | 1260 nM | 478 nM | 1240 nM | 1.13 µM | 862 nM |  |  |  | 
5 | [2H]C([2H])([2H])n1cc(-c2ccc3cnc(NC(=O)[C@H](C)N4CCCC4)cc3c2)cn1 [Compound 971, (S)—N-(6-(1-(methyl-d3)-1H-pyrazol-4-yl)isoquinolin-3-yl)-2-(pyrrolidin-1-yl)propanamide] | 34.2 nM | 720 nM | 1200 nM | 34 nM | 866 nM | 1.22 µM | 191 nM |  |  |  | 
6 | O=C(Nc1cc2cc(-c3cnco3)ccc2cn1)C1CC1 [Compound 973, N-(6-(Oxazol-5-yl)isoquinolin-3-yl)cyclopropanecarboxamide] | 2.9 nM | 609 nM | 391 nM | 20 nM | 134 nM | 0.395 µM | 102 nM |  |  |  | 
7 | O=C(Nc1cc2cc(-c3cnco3)ccc2cn1)[C@H]1CCCO1 [Compound 974, (R)—N-(6-(Oxazol-5-yl)isoquinolin-3-yl)tetrahydrofuran-2-carboxamide] | 13.5 nM | 3740 nM | 3160 nM | 96 nM | > 10000 nM | > 10 µM | 2000 nM |  |  | 49.6% | 45.9%
8 | O=C(Nc1cc2cc(-c3cnco3)ccc2cn1)[C@@H]1CCCNC1 [Compound 975, (R)—N-(6-(Oxazol-5-yl)isoquinolin-3-yl)piperidine-3-carboxamide] | 12 nM | 423 nM | 334 nM | 1090 nM | 138 nM | 0.425 µM | 4600 nM |  |  |  | 
9 | O=C(Nc1cc2cc(-c3cnco3)ccc2cn1)C1CCN(C(=O)CN2CCCC2)CC1 [Compound 977, N-(6-(Oxazol-5-yl)isoquinolin-3-yl)-1-(2-(pyrrolidin-1-yl)acetyl)piperidine-4-carboxamide] | 3.2 nM | 875 nM | 615 nM | 246 nM | 136 nM | 0.404 µM | 426 nM |  |  |  | 
10 | CN1CCC(N2CCC(C(=O)Nc3cc4cc(-c5cnco5)ccc4cn3)CC2)CC1 [Compound 978, 1′-Methyl-N-(6-(oxazol-5-yl)isoquinolin-3-yl)-[1,4′-bipiperidine]-4-carboxamide] | 3.9 nM | 2220 nM | 1580 nM | 220 nM | 722 nM | 3.36 µM | 274 nM |  |  |  | 
11 | O=C(Nc1cc2cc(-c3cnco3)ccc2cn1)[C@H]1CC[C@@H](N2CCOCC2)CC1 [Compound 979, cis-4-Morpholino-N-(6-(oxazol-5-yl)isoquinolin-3-yl)cyclohexane-1-carboxamide] | 10 nM | 4090 nM | 2220 nM | 791 nM | 1030 nM | 4.3 µM | 569 nM |  |  |  | 
12 | CN(CC(=O)Nc1cc2cc(-c3cnco3)ccc2cn1)C1CCC1 [Compound 980, 2-(Cyclobutyl(methyl)amino)-N-(6-(oxazol-5-yl)isoquinolin-3-yl)acetamide] | 19.1 nM | > 10000 nM | 5740 nM | 389 nM | > 10000 nM | 3.68 µM | 2100 nM | 40.5% |  | 40.3% | 
13 | O=C(CN1CCCC1)Nc1cc2cc(-c3cnco3)ccc2cn1 [Compound 981, N-(6-(Oxazol-5-yl)isoquinolin-3-yl)-2-(pyrrolidin-1-yl)acetamide] | 13.7 nM | 1080 nM | 546 nM | 141 nM | 605 nM | 1.1 µM | 1100 nM |  |  |  | 
14 | C[C@@H]1CCCN1CC(=O)Nc1cc2cc(-c3cnco3)ccc2cn1 [Compound 982, (R)-2-(2-Methylpyrrolidin-1-yl)-N-(6-(oxazol-5-yl)isoquinolin-3-yl) acetamide] | 19.2 nM | 2710 nM | 1210 nM | 265 nM | 767 nM | 2.79 µM | 1100 nM |  |  |  | 
15 | CN1CCN(CC(=O)Nc2cc3cc(-c4cnco4)ccc3cn2)CC1 [Compound 983, 2-(4-Methylpiperazin-1-yl)-N-(6-(oxazol-5-yl)isoquinolin-3-yl)acetamide] | 22.3 nM | 5530 nM | 4620 nM | 303 nM | 679 nM | > 10 µM | 1500 nM |  |  |  | 9.1%
16 | Cn1ncc(-c2ccc3cnc(NC(=O)C4CCOCC4)cc3c2)c1CO [Compound 984, N-(6-(5-(Hydroxymethyl)-1-methyl-1H-pyrazol-4-yl)isoquinolin-3-yl) tetrahydro-2H-pyran-4-carboxamide] | 5.5 nM | 2990 nM | 3130 nM | 236 nM | 1240 nM | 8.76 µM | 2100 nM |  |  |  | 
17 | CN1CCC(C(=O)Nc2cc3cc(-c4cnn(C)c4CO)ccc3cn2)CC1 [Compound 985, N-(6-(5-(Hydroxymethyl)-1-methyl-1H-pyrazol-4-yl)isoquinolin-3-yl)-1-methylpiperidine-4-carboxamide] | 4.1 nM | 1160 nM | 1720 nM | 283 nM | > 10000 nM | 3.89 µM | 3200 nM |  |  | 38% | 
18 | O=C(Nc1cc2cc(-c3cnc4n3CCNC4)ccc2cn1)C1CC(F)(F)C1 [Compound 986, 3,3-Difluoro-N-(6-(5,6,7,8-tetrahydroimidazo[1,2-a]pyrazin-3-yl)isoquinolin-3-yl)cyclobutane-1-carboxamide] | 11 nM | 1380 nM | 3300 nM | 21 nM | 158 nM | > 10 µM | 387 nM |  |  |  | 13.4%
19 | O=C(Nc1cc2cc(-c3cnc4n3CCNC4)ccc2cn1)[C@H]1CCCN1 [Compound 987, (R)—N-(6-(5,6,7,8-Tetrahydroimidazo[1,2-a]pyrazin-3-yl)isoquinolin-3-yl) pyrrolidine-2-carboxamide] | 42.8 nM | > 10000 nM | > 10000 nM | 2320 nM | > 10000 nM | > 10 µM | > 10000 nM | 10.7% | 10.6% | 42% | 6.5%
20 | O=C(Nc1cc2cc(-c3cnc4n3CCNC4)ccc2cn1)[C@@H]1CCCNC1 [Compound 988, (R)—N-(6-(5,6,7,8-Tetrahydroimidazo[1,2-a]pyrazin-3-yl)isoquinolin-3-yl) piperidine-3-carboxamide] | 24.9 nM | > 10000 nM | > 10000 nM | 1090 nM | > 10000 nM | > 10 µM | > 10000 nM | 11.1% | 18% | 46.5% | 8.8%
21 | CN1CCC(C(=O)Nc2cc3cc(-c4cnc5n4CCNC5)ccc3cn2)CC1 [Compound 989, 1-Methyl-N-(6-(5,6,7,8-tetrahydroimidazo[1,2-a]pyrazin-3-yl)isoquinolin-3-yl)piperidine-4-carboxamide] | 16.2 nM | 4320 nM | > 10000 nM | 298 nM | 4420 nM | > 10 µM | > 10000 nM |  | 36.4% |  | 12.5%

Source: US10287267B2, “Isoquinolin-3-yl carboxamides and preparation and use thereof” (Samumed, LLC, priority 2016, dated 2019)
